Here are results for one compound from patent US9873670B2, “Arylquinoline and analog compounds and use thereof to treat cancer” (UNIVERSITY OF KENTUCKY RESEARCH FOUNDATION, priority 2013, dated 2018).

The subject of data set [1] is normal/immortalized human cells. Nature of the data set: Par-4 secretion from normal/immortalized human cells. The class given is cell-based. How it is done:
In another aspect, the subject technology provides assays for screening test compounds that interfere with vimentin binding to PAR-4 or which cause release of vimentin-bound PAR-4. In a typical assay, cells, such as HEL cells, are seeded onto an appropriate support, such as 60-mm plates containing supplemented growth medium (e.g., supplemented with 0.1% serum) at a desired confluency, such as 40-70% confluency, and treated with the test compound (e.g., 500 nM) or control vehicle. The cells are allowed to grow for a period of time, such as 24 hours, after which the conditioned medium (CM) is concentrated (e.g., concentrated 30× to 100 μl using Millipore tubes (Amicon Ultra centrifugal filters, Ultracel-10K) by 15 min centrifugation at 4500 rpm). The concentrated CM is then subjected to co-immunoprecipitation using detectably labeled PAR-4 and vimentin antibodies in the presence of various concentrations of purified PAR-4 and the precipitated proteins are resolved by SDS-PAGE and analyzed by Western blot analysis. The amount of immunoprecipitated PAR-4-vimentin complex is compared to that of control samples. For example, chemiluminescent signals may be quantified in the BIO-RAD Molecular Imager ChemiDoc XRS+Imaging system using Quantity One software. […]

In a further data set the test system is prostate cancer cells. Nature of the data set: Par-4 secretion from prostate cancer cells. The class given is cell-based. The settings on record: relative to vehicle control.
A further data set relates to vimentin. Nature of the data set: Pull-down with biotinylated arylquin to identify target protein. In kind it is binding, mouse (MEFs), human (HEL). The following applies: lysates of MEFs and HEL cells, biotinylated analog. How it is done: Pull down experiments: To identify the target protein for compound Arylquin 1, pull-down experiments were performed as described previously. See Bargagna-Mohan, P., et al. J Biol Chem 285, 7657-7669 (2010). MEFs or HEL cells (grown to confluence in 15 cm plates) were lysed in […] lysis buffer (40 mM Hepes, pH 7.8; 140 mM NaCl; 10 mM NaF; 10% Glycerol, 1 mM EDTA; 1% Triton 100), and the lysates were pre-cleared at 4° C. for 1 h with 100 μL streptavidin beads (Novagen, Strep-Tactin Superflow Agarose). Binding reactions were performed by incubating the pre-cleared cell lysates with 50 μL beads±25 μg of biotinylated Arylquin 1 at 4° C. for 2 h. The beads were then washed four times with buffer (40 mM Hepes, pH 7.8; 140 mM NaCl; 10 mM NaF; 10% Glycerol, 1 mM EDTA), and bound protein was eluted with 50 μL of 2.5 mM Biotin/PBS. Eluted proteins were resolved by SDS-PAGE and Coomassie blue staining.

For data set [2], the system named is diverse cancer cells (lung cancer A549, H460, LLC1, KP7B; prostate cancer PC-3 MM2, DU145, LNCaP). Kind of data set: Apoptosis by ICC for active caspase-3, cancer cells. In kind it is cell-based, human, mouse. As to the method: (§1) Normal cells (MEFs, HELs, HBEC, PrE, prostate stromal cells PrS) or lung cancer cells (human A549 and H460, mouse LLC1 and KP7B) and prostate cancer cells (PC-3 MM2, DU145, LNCaP) were treated with the indicated amounts (0.5, 1 and 10 μM) of Arylquin 1 or vehicle (V) for 24 h, and apoptosis was determined by ICC for active caspase-3. Data shown represent mean values from three independent experiments±s.d. Asterisks (**) or (*) indicate statistical significance (P<0.0001) or (P<0.001), respectively, by the Student t test.
(§2) See Hebbar, N., Wang, C. & Rangnekar, V. M. J Cell Phys 227, 3715-3721 (2012) and Shrestha-Bhattarai, T., Hebbar, N. & Rangnekar, V. M. Cancer Cell 24, 3-5 (2013). A total of three independent experiments were performed; and approximately 500 cells were scored in each experiment for apoptosis under a fluorescent microscope. Cell surface GRP78 expression on the cancer cell surface was quantified by FACS analysis in the Flow Cytometry Shared Resource Facility, Markey Cancer Center as previously described. See Hebbar, N., Wang, C. & Rangnekar, V. M. J Cell Phys 227, 3715-3721 (2012).

In data set [3] the test system is normal cells (MEFs, HELs, HBEC, PrE, PrS). Kind of data set: Apoptosis by ICC for active caspase-3, normal cells. The class given is cell-based, human, mouse. How it is done: as §1, §2
The subject of a further data set is PC-3MM2. Kind of data set: Apoptosis, PC-3MM2 cells. The class given is cell-based, human. The settings on record: 500 nM. How it is done:
as §2

A further data set deals with normal HEL cells. Kind of data set: Apoptosis of normal cells in co-culture experiments. The class given is cell-based, human. The settings on record: 500 nM. As to the method:
as §2

The next data set has as its system vimentin-deficient cells. Nature of the data set: Par-4 secretion from vimentin-deficient cells. In kind it is cell-based.

Structures are written as SMILES.

For the compound `CN(C)c1ccc2cc(-c3ccccc3F)c(N)nc2c1` [Arylquin 1, 3-(2-fluorophenyl)-N^7,N^7-dimethylquinoline-2,7-diamine], the “secretion of Par-4 from normal fibroblasts and epithelial cells” value in data set [1] (nanomolar concentrations) is on record as “dose-dependent secretion of Par-4 at nanomolar concentrations”. In addition, the Par-4 secretion entry in data set [1] (normal/immortalized human cells) is listed as “induced robust secretion of Par-4”; in the data set with prostate cancer cells, “showed induction of Par-4 secretion”; in the data set with vimentin-deficient cells, “did not further induce Par-4 secretion”. Further, in the data set on vimentin, the “target protein identified by pull-down” value was “Vimentin was the primary target”. Moreover, the direct apoptosis entry in data set [2] (500 nM) and in data set [3] (500 nM) was “did not directly induce apoptosis” in each case. Besides, the apoptosis entry in data set [2] (0.5, 1 and 10 μM, 24 h) is recorded as “induced the dose-dependent apoptosis in cancer cells”; in data set [3] (0.5, 1 and 10 μM, 24 h) it was “not in normal cells”; in the data set on PC-3MM2, “induced apoptosis”. For the same compound, the “apoptosis of normal cells in co-culture” value in the data set on normal HEL cells is “not normal HEL cells”.
